Experimental data as given in patent US20250296971A1, “GASTRIC INHIBITORY PEPTIDE RECEPTOR LIGANDS” (priority 2021, published 2025).
Like-named read-outs stand apart in the source and are kept apart here. *1 amine or outer side, *2 acyl side, *3 side chain or, on linkers, in order; H or OH if unused. Where a SMILES comes first, the peptide text is derived from it. Bridges are numbered along the chain shown (N, C = ends). Side-chain parts run from the residue outwards. [ ]: non-standard residue; d: D form. The star is where a group is joined. X5 = NC(=O)[C@H](CCCCNC(=O)CN1CCN(CC(=O)O)CCN(CC(=O)O)CCN(CC(=O)O)CC1)NC(=O)CCC(=O)NCCCOCCOCCOCCCN*; NH(1-deoxy-D-glucityl) = OC[C@@H](O)[C@@H](O)[C@H](O)[C@@H](O)CN*; Pro(trans-4-NH2) = O=C([C@@H]1C[C@@H](N[*:3])CN1[*:1])[*:2]; DOTA = O=C(O)CN1CCN(CC(=O)O)CCN(CC(=O)*)CCN(CC(=O)O)CC1; Trp(5-Cl) = N[C@@H](Cc1c[nH]c2ccc(Cl)cc12)C(=O)O; Pyridine(2,6-diCH2) = c1cc(C[*:1])nc(C[*:2])c1; X10 = O=C(CN(CC(=O)NC(CO)CO)CC(=O)*)NC(CO)CO; Pro(4R-NH2) = N[C@H]1CN[C@H](C(=O)O)C1; Glutaryl = O=C(CCCC(=O)[*:2])[*:1]; X6 = c1cc(CSCCN[*:2])nc(C[*:1])c1; Cya = N[C@@H](CS(=O)(=O)O)C(=O)O; Hyp = O=C(O)[C@@H]1C[C@@H](O)CN1; X1 = O=C(CN1CCC(N[*:1])CC1)[*:2]; Suc = O=C(CCC(=O)[*:2])[*:1]; hSer = N[C@@H](CCO)C(=O)O; NHCH(CH2OH)2 = OCC(CO)N*; Api = NC1(C(=O)O)CCNCC1; Thp = NC1(C(=O)O)CCOCC1; Aib = CC(C)(N)C(=O)O

Columns and labels:
[1] = biological target: T1, human GIP receptor (bioGIPR) (Homo sapiens, UniProt P48546); assay: Surface plasmon resonance (SPR) based binding assay; settings: Single Cycle Kinetic mode, 25° C.; for t1/2 Category: SPR dissociation half-life; for Kd: SPR, 1:1 Langmuir binding model, read-out: pKD Category (converted)
T1 construct: Biotinylate extracellular of the human GIP receptor (bioGIPR, Proteros biostructures GmbH, lot #02/2b); purchased Proteros biostructures GmbH lot #02/2b
T1 sequence (P48546 22-138 limits assumed): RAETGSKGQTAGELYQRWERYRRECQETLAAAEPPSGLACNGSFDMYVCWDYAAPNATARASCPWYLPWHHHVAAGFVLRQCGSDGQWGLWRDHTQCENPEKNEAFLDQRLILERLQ
Procedure: Surface plasmon resonance (SPR) studies were performed using a Biacore™ T200 SPR system. Briefly, polarized light is directed towards a gold-labeled sensor surface, and minimum intensity reflected light is detected. The angle of reflected light changes as molecules bind and dissociate.
Biotinylate extracellular of the human GIP receptor (bioGIPR, Proteros biostructures GmbH, lot #02/2b) was captured on a biotin capture chip (Biotin CAPture Kit, Series S, GE Healthcare, Cat #28-9202-34). bioGIPR was diluted in Running Buffer (HBST from Xantec Analytics; […], 0.05% Tween20, 0.1% DMSO) to a final concentration 100 nM and than flushed over the Fc-capture chip to immobilized ˜3500 RUs.
Stock solutions of test compounds were prepared by dissolving each compound in DMSO. DMSO stock solution were diluted 1:1000 in Running Buffer without DMSO. Further sequential dilutions were made with Running Buffer containing 0.1% DMSO. SPR binding analyses were performed in Single Cycle Kinetic (SCK) mode at 25° C. Flow cell without immobilized bioGIPR served as reference flowcell. After each SCK run, bioGIRP and the Biotin Capture Reagent was removed with Regeneration Solution (6 M Guanidium, 0.75 M NaOH).
In between every three SCK measurements, a blank run with Running Buffer instead of test compound was included to correct for baseline drifts (double blanking method).
For each test compound, SPR raw data in the form of resonance units (RU) were plotted as sensorgrams using the Biacore™ T200 control software. The signal from the blank sensorgram was subtracted from that of the test compound sensorgram (blank corrected). The blank corrected sensorgram was corrected for baseline drift by subtracting the sensorgram of a SCK run without the test compound (running buffer only). The association rate (kon), dissociation rate (koff), dissociation constant (KD), and t1/2 were calculated from blank corrected SPR data using the 1:1 Langmuir binding model from the Biacore™ T200 evaluation software. Raw data and fit results were imported as text files in IDBS. The pKD value (negative decadic logarithm of dissociation constant) was calculated in the IDBS excel template.

[2] = biological target: T2, GIPR (CHO-K1-hGIPR cells) (Homo sapiens, UniProt P48546); assay: FACS binding assay; settings: read-out: pIC50 Category (converted)
T2 construct: host or cells: CHO-K1
T2 sequence (P48546 22-466): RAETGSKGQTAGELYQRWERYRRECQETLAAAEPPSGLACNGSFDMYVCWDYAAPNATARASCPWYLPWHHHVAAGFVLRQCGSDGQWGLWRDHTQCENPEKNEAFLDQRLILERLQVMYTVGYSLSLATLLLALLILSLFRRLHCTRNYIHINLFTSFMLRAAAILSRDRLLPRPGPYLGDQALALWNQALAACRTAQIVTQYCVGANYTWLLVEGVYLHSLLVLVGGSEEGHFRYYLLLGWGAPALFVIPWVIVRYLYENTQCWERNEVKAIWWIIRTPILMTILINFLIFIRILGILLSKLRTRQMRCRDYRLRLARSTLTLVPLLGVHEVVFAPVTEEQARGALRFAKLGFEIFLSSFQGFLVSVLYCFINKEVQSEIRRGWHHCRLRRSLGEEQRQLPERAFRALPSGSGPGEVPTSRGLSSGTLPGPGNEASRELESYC
In short: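 Read-out: flow cytometric median fluorescence intensity, APC/Cy5 channel, plotted vs peptide conc.; 4PL fit → EC50/pEC50 or IC50/pIC50. Cells: CHO-K1-hGIPR, Accutase-detached, 500.000/mL in PBS + 1% FCS. Detection: APC-streptavidin 1 μg/mL, 30 min, on ice.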

[3] = competition with 20 nM GIP-057, 4° C., 1 hour

| Structure (SMILES) | t1/2 Category [1] | Kd [1] | IC50 [2, 3] | IC50 ([2]; competition with 20 nM GIP-057, 4° C. for 1 hour) |
| --- | --- | --- | --- | --- |
| CC[C@H](C)[C@@H]1NC(=O)[C@H](CC(C)C)NC(=O)C(C)(C)NC(=O)[C@@H](NC(=O)[C@@H](CC(C)C)NC(=O)[C@H](CCC(=O)O)NC(=O)[C@@H]2C[C@@H](O)CN2C(=O)[C@H](Cc2c[nH]c3ccc(Cl)cc23)NC(=O)[C@H](Cc2c[nH]c3ccccc23)NC(=O)[C@H](CS(=O)(=O)O)NC(C)=O)CSCc2cccc(n2)CSCCNC1=O [GIP-179, Ac-Cya-Trp-5Clw-Hyp-Glu-leu-[Cys(2Lut)-Aib-Leu-Ile-AET]] (Ac-[Cya]W[Trp(5-Cl)][Hyp]E[dL]C[Aib]LI; linker 7-C via X6) | – | < 1 nM | < 10 nM | – |
| CC[C@H](C)[C@@H]1NC(=O)[C@H](CC(C)C)NC(=O)C2(CCOCC2)NC(=O)[C@@H](NC(=O)[C@@H](CC(C)C)NC(=O)[C@H](CCC(=O)O)NC(=O)[C@@H]2C[C@@H](O)CN2C(=O)[C@H](Cc2c[nH]c3ccc(Cl)cc23)NC(=O)[C@H](Cc2c[nH]c3ccccc23)NC(=O)CCC(=O)O)CSCc2cccc(n2)CSC[C@@H](C(=O)NCCCOCCOCCOCCCNC(=O)CCC(=O)N[C@@H](CCCCNC(=O)CN2CCN(CC(=O)O)CCN(CC(=O)O)CCN(CC(=O)O)CC2)C(N)=O)NC1=O [GIP-108, HO-Succinyl-Trp-5Clw-Hyp-Glu-leu-[Cys(2Lut)-Thp-Leu-Ile-Cys]-Ttds-Lys(DOTA)-NH2] (Suc-W[Trp(5-Cl)][Hyp]E[dL]C[Thp]LIC-X5; linker 6-10 via Pyridine(2,6-diCH2)) | A (t1/2 values>15 min) | < 1 nM | < 10 nM | – |
| CC[C@H](C)[C@@H]1NC(=O)[C@H](CC(C)C)NC(=O)C2(CCOCC2)NC(=O)[C@@H](NC(=O)[C@@H](CC(C)C)NC(=O)[C@H](CCC(=O)O)NC(=O)[C@@H]2C[C@@H](O)CN2C(=O)[C@H](Cc2c[nH]c3ccc(Cl)cc23)NC(=O)[C@H](Cc2c[nH]c3ccccc23)NC(=O)[C@H](CC(=O)O)NC(=O)CN2CCC(NC(=O)CN3CCN(CC(=O)O)CCN(CC(=O)O)CCN(CC(=O)O)CC3)CC2)CNCc2cccc(n2)CSCCNC1=O [GIP-106, DOTA-APAc-Asp-Trp-5Clw-Hyp-Glu-leu-[Dap(2Lut)-Thp-Leu-Ile-AET]] | A (t1/2 values>15 min) | 1 to 7.94 nM | < 10 nM | – |

Now from value to compound:

| t1/2 Category [1] | Kd [1] | IC50 [2, 3] | IC50 ([2]; competition with 20 nM GIP-057, 4° C. for 1 hour) | Structure (SMILES) |
| --- | --- | --- | --- | --- |
| D (t1/2<2.0 min) | 1 to 7.94 nM | 10 to 79.4 nM | – | CC[C@H](C)[C@@H]1NC(=O)[C@H](CC(C)C)NC(=O)C2(CCN(C(=O)CN3CCN(CC(=O)O)CCN(CC(=O)O)CCN(CC(=O)O)CC3)CC2)NC(=O)[C@@H](NC(=O)[C@@H](CC(C)C)NC(=O)[C@H](CCO)NC(=O)[C@@H]2C[C@@H](NC(=O)CCCC(=O)NC[C@H](O)[C@@H](O)[C@H](O)[C@H](O)CO)CN2C(=O)[C@H](Cc2c[nH]c3ccc(Cl)cc23)NC(=O)[C@H](Cc2c[nH]c3ccccc23)NC(=O)[C@H](CO)NC(=O)CN2CCC(NC(=O)CCCC(=O)NC[C@H](O)[C@@H](O)[C@H](O)[C@H](O)CO)CC2)CSCc2cccc(n2)CSC[C@@H](C(=O)NC2CCN(CC(=O)N[C@H](CCC(=O)NC[C@H](O)[C@@H](O)[C@H](O)[C@H](O)CO)C(N)=O)CC2)NC1=O [GIP-046, AGLU-Glutar-APAc-Ser-Trp-5Clw-Tap(AGLU-Glutar)-Hse-leu-[Cys(2Lut)-Apc(DOTA)-Leu-Ile-Cys]-APAc-glu(AGLU)-NH2] ({NH(1-deoxy-D-glucityl)-Glutaryl}-[X1]SW[Trp(5-Cl)][Pro(trans-4-NH2)]([Glutaryl-NH(1-deoxy-D-glucityl)])[hSer][dL]C[Api](DOTA)LIC[X1][dE](NH(1-deoxy-D-glucityl))-NH2; linker 8-12 via Pyridine(2,6-diCH2)) |
| A (t1/2 values>15 min) | < 1 nM | – | < 10 nM | CC[C@H](C)[C@@H]1NC(=O)[C@H](CC(C)C)NC(=O)C2(CCN(C(=O)CN3CCN(CC(=O)O)CCN(CC(=O)O)CCN(CC(=O)O)CC3)CC2)NC(=O)[C@@H](NC(=O)[C@@H](CC(C)C)NC(=O)[C@H](CCC(=O)O)NC(=O)[C@@H]2C[C@@H](N)CN2C(=O)[C@H](Cc2c[nH]c3ccc(Cl)cc23)NC(=O)[C@H](Cc2c[nH]c3ccccc23)NC(=O)[C@H](CC(=O)O)NC(=O)CN(CC(=O)NC(CO)CO)CC(=O)NC(CO)CO)CSCc2cccc(n2)CSC[C@@H](C(=O)NC2CCN(CC(=O)N[C@H](CCC(=O)NC(CO)CO)C(=O)NC(CO)CO)CC2)NC1=O [GIP-374, NTASEROL-Asp-Trp-5Clw-Tap-Glu-leu-[Cys(2Lut)-Apc(DOTA)-Leu-Ile-Cys]-APAc-GLUSEROL] (X10-DW[Trp(5-Cl)][Pro(4R-NH2)]E[dL]C[Api](DOTA)LIC[X1][dE](NHCH(CH2OH)2)-{NHCH(CH2OH)2}; linker 7-11 via Pyridine(2,6-diCH2)) |
